Assay [1] has as its target T1, HLA-A1101 (Homo sapiens, UniProt P04439, A114D/D185E/E176A/F33Y/L180Q/S129P/T187R).
T1 construct: expressed in transfected cells; host or cells: HMy2.CIR
Nature of the assay: cell-based. Format: binding. The settings on record: for inhibition at 5 µM / inhibition at 15 µM: 24 h; for inhibition at 5 µM: read-out: 5-μM inhibition (%); for inhibition at 15 µM: read-out: 15-μM inhibition (%).

Assay [2] has as its target HLA-A1102 (Homo sapiens, UniProt P04439, A114D/D185E/E176A/E43K/F33Y/L180Q/S129P/T187R). Nature of the assay: cell-based. The class given is binding. The note with it: 24 h; for inhibition at 5 µM: read-out: 5-μM inhibition (%); for inhibition at 15 µM: read-out: 15-μM inhibition (%).
The target in assay [3] is T2, HLA-A3101 (Homo sapiens, UniProt P04439, A270S/D185E/E176V/E277Q/F33T/G231S/G80R/H175R/I121M/I218V/I322F/K168Q/L300P/L318F/M331R/P217A/Q94H/R138Q/T323A/T345S/T97I/V358M).
T2 construct: expressed in transfected cells; host or cells: HMy2.CIR
Nature of the assay: Peptide competitive binding assay, HMy2.CIR cells expressing A3101. The settings on record: for inhibition at 5 µM / inhibition at 15 µM: A3101, 24 h, 4°C, flow cytometry; for inhibition at 5 µM: peptide 5 μM vs FITC-labeled reference peptide 300 nM; for inhibition at 15 µM: peptide 15 μM vs FITC-labeled reference peptide 300 nM; for IC50: read-out: Affinity. In general terms: Flow cytometry measures light scatter and fluorescence of single cells or particles in a stream.

Assay [4] concerns the target HLA-A3303 (Homo sapiens, UniProt P04439, A270S/D185E/E176V/E277Q/E87N/F33T/G231S/H175R/I121M/I218V/I322F/K168Q/L300P/L318F/M331R/P217A/Q86R/Q94H/R138Q/T323A/T345S/T97I/V358M). Nature of the assay: Peptide competitive binding assay, HMy2.CIR cells expressing A3303. The note with it: for inhibition at 5 µM: peptide 5 μM vs FITC-labeled reference peptide 300 nM; for inhibition at 5 µM / inhibition at 15 µM: 24 h, 4°C, flow cytometry; for inhibition at 15 µM: peptide 15 μM vs FITC-labeled reference peptide 300 nM; for IC50: read-out: Affinity.

Assay [5] deals with T3, HLA-A3001 (Homo sapiens, UniProt P04439, D140H/D185E/E176W/F33S/G80R/H175R/K168Q/R138E/R41S).
T3 construct: expressed in transfected cells; host or cells: HMy2.CIR
Nature of the assay: cell-based. Format: binding.

Assay [6] deals with T4, HLA-A0206 (Homo sapiens, UniProt P04439, D140Y/D185E/D98H/E176V/E277Q/F33Y/G131W/G231S/I119V/I121R/I166T/I218V/L300P/L318F/N151K/N90K/P208A/P217A/Q86G/Q94H/R138H/R169H/T345S).
T4 construct: expressed in transfected cells; host or cells: HMy2.CIR
Nature of the assay: Peptide competitive binding assay, HMy2.CIR cells expressing A0206. The settings on record: 24 h, 4°C, flow cytometry; for 5-μM inhibition (%): peptide 5 μM vs FITC-labeled reference peptide 300 nM; for 15-μM inhibition (%): peptide 15 μM vs FITC-labeled reference peptide 300 nM.

For assay [7], the target named is T5, HLA-A0207 (Homo sapiens, UniProt P04439, D140Y/D185E/D98H/E176V/E277Q/G131W/G231S/I119V/I121R/I166T/I218V/L300P/L318F/N151K/N90K/P208A/P217A/Q86G/Q94H/R138H/R169H/T345S/Y123C).
T5 construct: expressed in transfected cells; host or cells: HMy2.CIR
Nature of the assay: Peptide competitive binding assay, HMy2.CIR cells expressing A0207. The settings on record: 24 h, 4°C, flow cytometry.

The target in assay [8] is T6, HLA-A0201 (Homo sapiens, UniProt P04439, D140Y/D185E/D98H/E176V/E277Q/G131W/G231S/I119V/I121R/I166T/I218V/L300P/L318F/N151K/N90K/P208A/P217A/Q86G/Q94H/R138H/R169H/T345S).
T6 construct: expressed in transfected cells; host or cells: HMy2.CIR
Nature of the assay: cell-based. The class given is binding.

Setting [9] is: A1101, peptide 5 μM vs FITC-labeled reference peptide 300 nM, 4°C, flow cytometry.
Where [10] appears, read: A1101, peptide 15 μM vs FITC-labeled reference peptide 300 nM, 4°C, flow cytometry.
Setting [11] is: A1102, peptide 5 μM vs FITC-labeled reference peptide 300 nM, 4°C, flow cytometry.
[12] abbreviates: A1102, peptide 15 μM vs FITC-labeled reference peptide 300 nM, 4°C, flow cytometry.
The mark [13] stands for this setting: A3303, class from inhibition at 5 and 15 μM of FITC-labeled reference peptide binding.
Setting [14] is: A3001, peptide 5 μM vs FITC-labeled reference peptide 300 nM, 24 h, 4°C, flow cytometry.
Setting [15] is: A3001, peptide 15 μM vs FITC-labeled reference peptide 300 nM, 24 h, 4°C, flow cytometry.
[16] abbreviates: peptide 5 μM vs FITC-labeled reference peptide 300 nM.
The mark [17] stands for this setting: peptide 15 μM vs FITC-labeled reference peptide 300 nM.

Read-outs that look alike come from different tables or passages of the source. Where no end group is shown, it is not given here.

For `CC[C@H](C)[C@H](NC(=O)[C@H](Cc1ccccc1)NC(=O)[C@@H](NC(=O)[C@H](C)N)C(C)C)C(=O)N[C@@H](Cc1c[nH]cn1)C(=O)N[C@@H](CC(N)=O)C(=O)N[C@@H](Cc1ccccc1)C(=O)N[C@@H](CCCCN)C(=O)N[C@@H](CCCNC(=N)N)C(=O)O` [Peptide P41], the IC50 in assay [1], in assay [3] and in assay [4] was < 5 µM each time. The inhibition (commonly the change of the read-out against control, counted positive when it falls) at 5 µM was 83.8% in assay [1], 1.73% in assay [2], 63.4% in assay [3] and 71% in assay [4] (A3303). Besides, the inhibition at 15 µM in assay [1] was 86.8%; in assay [2], 21.5%; in assay [3], 96%; in assay [4] (A3303), 89.8%.
As for ASRELERFA [Peptide P90], the IC50 in assay [5] lay within 5 to 15 µM. Besides, in assay [5] (A3001, peptide 5 μM vs FITC-labeled reference peptide 300 nM, 24 h, 4°C, flow cytometry, read-out: 5-μM inhibition (%)), the inhibition at 5 µM worked out at 17.7%. For the same compound, the inhibition at 15 µM in assay [5] (A3001, peptide 15 μM vs FITC-labeled reference peptide 300 nM, 24 h, 4°C, flow cytometry, read-out: 15-μM inhibition (%)) was 58%.
For the compound ATLWCVHQR [Peptide P34], the IC50 in assay [1] (A1101, class from inhibition at 5 and 15 μM of FITC-labeled reference peptide binding, read-out: Affinity) is 5 to 15 µM; in assay [4] (setting [13]), < 5 µM. For the same compound, the inhibition at 5 µM is 44% in assay [1] (setting [9]), 3.12% in assay [2] (setting [11]) and 63.8% in assay [4] (A3303). Also, the inhibition at 15 µM in assay [1] (setting [10]) came out at 77.8%; in assay [2] (setting [12]) it was 13.8%; in assay [4] (A3303), 77.2%.
Turning to FVNTPPLVK [Peptide P44], in assay [1], the IC50 was < 5 µM. Also, the inhibition at 5 µM in assay [1] (setting [9]) came to 84.5%; in assay [2] (setting [11]), 6.01%. For the same compound, the results for the inhibition at 15 µM in assay [1] (setting [10]) and in assay [2] (setting [12]) were 92.7% and 26.1%, respectively.
Regarding KIILVAVHV [Peptide P75], in assay [6], the “5-μM inhibition (%)” value was determined as 3.69% and the “15-μM inhibition (%)” value came out at 5.11%.
For KIVRMYSPV [Peptide P71], in that order: 6.54% and 14.21%.
For KVILVAVHV [Peptide P74], in assay [6], the “5-μM inhibition (%)” value worked out at 20.64%.
On to KVVPRRKAK [Peptide P93], for which the “5-μM inhibition (%)” value in assay [5] (setting [14]) turned out to be 16.92%. Further, in assay [5] (setting [15]), the “15-μM inhibition (%)” value worked out at 41.10%.
As to KVYLSWVPA [Peptide P94], the “5-μM inhibition (%)” value in assay [5] (setting [14]) stood at 27.40%. Besides, in assay [5] (setting [15]), the “15-μM inhibition (%)” value was found to be 45.93%.
Turning to LVDTIAIAV [Peptide P77], in assay [7] (setting [16]), the “5-μM inhibition (%)” value is 9.36%. The “15-μM inhibition (%)” value in assay [7] (setting [17]) was determined as 23.40%.
On to MAHQPLSPR [Peptide P111], for which the values for the inhibition at 5 µM in assay [2] (setting [11]) and in assay [4] (A3303) were 4.16% and 78.2%, respectively. Further, the figures for the inhibition at 15 µM in assay [2] (setting [12]) and in assay [4] (A3303) were 20.6% and 89.2%, respectively. Besides, the IC50 in assay [4] (setting [13]) is < 5 µM.
As to MVHQPISPR [Peptide P103], the inhibition at 5 µM in assay [2] (setting [11]) was 3.81%; in assay [3], 65.4%; in assay [4] (A3303), 70.2%. Besides, the inhibition at 15 µM in assay [2] (setting [12]) stood at 13.4%; in assay [3], 79.2%; in assay [4] (A3303), 99.5%. In addition, the IC50 in assay [3] and in assay [4] was < 5 µM in each case.
QIINMWQEV [Peptide P73]: in assay [6], the “5-μM inhibition (%)” value was determined as 25.71% and the “15-μM inhibition (%)” value came out at 27.84%.
With QLPEKDSWTV [Peptide P14], in assay [8], the IC50 fell in the range of 5 to 15 µM. The inhibition at 5 µM was determined as 27.6% in assay [8] (A0201, peptide 5 μM vs FITC-labeled reference peptide 300 nM, 24 h, 4°C, flow cytometry, read-out: 5-μM inhibition (%)) and 0% in assay [7] (setting [16]). Moreover, the inhibition at 15 µM came to 81.5% in assay [8] (A0201, peptide 15 μM vs FITC-labeled reference peptide 300 nM, 24 h, 4°C, flow cytometry, read-out: 15-μM inhibition (%)) and 8.35% in assay [7] (setting [17]).
